# Measurements as given in patent US8541575B2, “3,4-diarylpyrazoles as protein kinase inhibitors” (Nerviano Medical Sciences S.R.L., priority 2008, dated 2013).
# Legend:
# Type in all cases: cell-based
# [1] = test system: human melanoma cells A375 (with a mutated B-RAF); experiment: In vitro cell proliferation assay, A375; settings: A-375, 72 hours treatment, cellular ATP readout
# Protocol: (§1) In Vitro Cell Proliferation Assay
# (§2) Exponentially growing human melanoma cells A375 (with a mutated B-RAF) and human melanoma cells Mewo (with wild-type B-Raf) were seeded and incubated at 37° C. in a humidified 5% CO2 atmosphere. After 24 hours, scalar doses of the compound were added to the medium and cells oncubated for 72 hours. At the end of treatment, cells were washed and counted. Cell number was determined by a cellular adenosine triphosphate monitoring system. Cell proliferation was compared to control cells and the concentration inhibiting cell growth by 50% was calculated.
# [2] = test system: human melanoma cells Mewo (with wild-type B-Raf); experiment: In vitro cell proliferation assay, Mewo; settings: 72 hours treatment, cellular ATP readout
# Protocol: as §1, §2
# [3] = test system: p-MAPK (T202/Y204) in A375 human melanoma cells, having a mutated B-RAF; experiment: p-MAPK (T202/Y204) ArrayScan assay; settings: A-375, treated 1.5 or 2 hours, p-MAPK cytoplasmatic fluorescence, read-out: Array Scan A375 IC50
# Protocol: p-MAPK (T202/Y204) ArrayScan Assay
# A375 human melanoma cells, having a mutated B-RAF, are seeded in 384-well poly-lysine coated plates (Matrix) at a density of 1000 cells/well with appropriate medium supplemented with 10% FCS and incubated for 16-24 hours. Cells are treated for 1.5 or 2 hours with increasing doses of compounds (starting dose 10 μM, dilution factor 2.5). At the end of the treatment cells are fixed with p-formaldehyde 3.7% for 15-30 min, then washed twice with D-PBS […] and permeabilized with D-PBS containing 0.1% Triton X-100 and 1% BSA (Sigma-Aldrich) for 15 minutes at room temperature (staining solution). Anti-phospho-MAPK (T202/Y204) monoclonal antibody E10 (Cell Signaling, cat. #9106) diluted 1:100 is added in staining solution and incubated for 1 hour at 37° C. After removal of the primary antibody solution, the anti-mouse Cy™2-conjugated (Green) secondary antibody (Amersham) diluted 1:500 in staining solution containing 2 μg/ml DAPI is added. The plate is incubated for 1 hour at 37° C., washed twice and then red with Cellomics' ArrayScan VTI (4 fields/well, CytoNucTrans algorithm).
# The parameter “MEAN_RingAvgIntenCh2”, which measures the mean cytoplasmatic fluorescence intensity associated to p-MAPK staining, is reported as the final result.
Compound,IC50 [1],IC50 [2],IC50 [3]
"Nc1cc(-c2c[nH]nc2-c2cccc(NC(=O)Nc3ccc(C(F)(F)F)cc3)c2)ccn1 [compound 12, 1-{3-[4-(2-aminopyridin-4-yl)-1H-pyrazol-3-yl]phenyl}-3-[4(trifluoromethyl)-phenyl]urea]",5960 nM,> 10 µM,4650 nM
"Nc1nccc(-c2c[nH]nc2-c2cccc(NC(=O)Nc3ccc(C(F)(F)F)cc3)c2)n1 [compound 31, 1-{3-[4-(2-aminopyrimidin-4-yl)-1H-pyrazol-3-yl]phenyl}-3-[4-(trifluoromethyl)-phenyl]urea]",2700 nM,> 10 µM,730 nM
"CC(=O)Nc1nccc(-c2c[nH]nc2-c2cccc(NC(=O)Nc3ccc(C(F)(F)F)cc3)c2)n1 [compound 32, N-(4-{3-[3-({[4-(trifluoromethyl)phenyl]carbamoyl}amino)phenyl]-1H-pyrazol-4-yl}pyrimidin-2-yl)acetamide]",5320 nM,> 10 µM,2510 nM
"Nc1nccc(-c2c[nH]nc2-c2cccc(NS(=O)(=O)c3cc(F)ccc3F)c2)n1 [compound 34, N-{3-[4-(2-aminopyrimidin-4-yl)-1H-pyrazol-3-yl]phenyl}-2,5-difluorobenzene-sulfonamide]",3180 nM,> 10 µM,340 nM
"CCCCn1cc(-c2ccncc2)c(-c2cccc(NC(=O)Nc3ccc(C(F)(F)F)cc3)c2)n1 [compound 49, 1-[3-(1-Butyl-4-pyridin-4-yl-1H-pyrazol-3-yl)-phenyl]-3-(4-trifluoromethyl-phenyl)-urea]",2610 nM,4.54 µM,1590 nM
"Cn1cc(-c2ccncc2)c(-c2c(F)ccc(NS(=O)(=O)c3cc(F)ccc3F)c2F)n1 [compound 52, N-[3-(1-Methyl-4-pyridin-4-yl-1H-pyrazol-3-yl)-2,4-difluoro-phenyl]-2,5-difluoro-benzenesulfonamide]",160 nM,> 10 µM,< 10 nM
"CCNc1nccc(-c2c[nH]nc2-c2cccc(NS(=O)(=O)c3cc(F)ccc3F)c2)n1 [compound 55, N-(3-{4-[2-(ethylamino)pyrimidin-4-yl]-1H-pyrazol-3-yl}phenyl)-2,5-difluorobenzenesulfonamide]",1250 nM,> 10 µM,170 nM

# Results, then the compound that gave them:
IC50 [1],IC50 [2],IC50 [3],Compound
1140 nM,> 10 µM,2320 nM,"CCC(=O)Nc1cc(-c2c[nH]nc2-c2cccc(NC(=O)Nc3ccc(C(F)(F)F)cc3)c2)ccn1 [compound 39, N-(4-{3-[3-({[4-(trifluoromethyl)phenyl]carbamoyl}amino)phenyl]-1H-pyrazol-4-yl}pyridin-2-yl)propanamide]"
3630 nM,> 10 µM,1750 nM,"CC(C)C(=O)Nc1cc(-c2c[nH]nc2-c2cccc(NC(=O)Nc3ccc(C(F)(F)F)cc3)c2)ccn1 [compound 40, 2-methyl-N-(4-{3-[3-({[4-(trifluoromethyl)phenyl]carbamoyl}amino)phenyl]-1H-pyrazol-4-yl}pyridin-2-yl)propanamide]"
3500 nM,> 10 µM,410 nM,"O=C(CCCO)Nc1cc(-c2c[nH]nc2-c2cccc(NC(=O)Nc3ccc(C(F)(F)F)cc3)c2)ccn1 [compound 43, 4-hydroxy-N-(4-{3-[3-({[4-(trifluoromethyl)phenyl]carbamoyl}amino)phenyl]-1H-pyrazol-4-yl}pyridin-2-yl)butanamide]"
1750 nM,> 10 µM,870 nM,"CNc1cc(-c2c[nH]nc2-c2c(F)ccc(NS(=O)(=O)c3cc(F)ccc3F)c2F)ccn1 [compound 53, N-{2,4-Difluoro-3-[4-(2-methylamino-pyridin-4-yl)-1H-pyrazol-3-yl]-phenyl}-2,5-difluoro-benzenesulfonamide]"
970 nM,> 10 µM,310 nM,"CCNc1cc(-c2c[nH]nc2-c2c(F)ccc(NS(=O)(=O)c3cc(F)ccc3F)c2F)ccn1 [compound 54, N-{3-[4-(2-Ethylamino-pyridin-4-yl)-1H-pyrazol-3-yl]-2,4-difluoro-phenyl}-2,5-difluoro-benzenesulfonamide]"
< 20 nM,> 10 µM,< 10 nM,"CC(C)Cn1cc(-c2ccncc2)c(-c2c(F)ccc(NS(=O)(=O)c3cc(F)ccc3F)c2F)n1 [compound 56, N-[3-(1-i-Butyl-4-pyridin-4-yl-1H-pyrazol-3-yl)-2,4-difluoro-phenyl]-2,5-difluoro-benzenesulfonamide]"
